Source: US20210283139A1, “BIFUNCTIONAL MOLECULES FOR TARGETING UCHL5” (AMPHISTA THERAPEUTICS LTD, priority 2018, published 2021)

Experiments:
Assay type in all cases: cell-based
Brd2 [1] = molecular target: T1, Brd2 (Homo sapiens, UniProt P25440); assay: Concentration-dependent BET degradation, immunoblot, HeLa cells; parameters: endogenous in cells; host or cells: HeLa; conditions: Brd2, 6 h treatment, 1 nM-10 μM; for Dmax: read-out: Dmax (%) maximum degradation observed
Procedure: (§1) Cell culture. HeLa (CCL-2) and HEK293 (CRL-1573) cells were purchased from ATCC and cultured in DMEM medium (Gibco) supplemented with 10% FBS, 100 μg/mL penicillin/streptomycin and L-glutamine. Cells were grown at 37° C. and 5% CO2, and were kept no longer than 30 passages. All cell lines were routinely tested for mycoplasma contamination using MycoAlert kit from Lonza.
(§2) Immunoblotting. proteins were separated by SDS-PAGE on NuPage 4-12% Bis-Tris gels, followed by transfer to Amersham Protran 0.45 NC nitrocellulose membrane (GE Healthcare) using wet transfer. Membranes were blocked using 5% w/v milk in Tris-buffered saline (TBS) with 0.1% Tween-20. Blots were probed (overnight at 4° C.) using anti-Brd2 (Abcam ab139690, 1:2,000 dilution), anti-Brd3 (Abcam ab50818, 1:500 dilution), and anti-Brd4 (Abcam ab128874, 1:1,000 dilution) primary antibodies, as appropriate. The next day, blots were washed with TBST and incubated (1 hr at RT) with anti-Tubulin hFAB-rhodamine (BioRad, 12004166) primary antibody, and either anti-rabbit IRDye 800CW (Licor 1:10,000 dilution) or anti-mouse IRDye 800CW (Licor 1:10,000 dilution) secondary antibody. Blots were developed using a Bio-Rad ChemiDoc MP Imaging System, and band quantification was performed using Image Studio software (LiCor). Band intensities were normalized to the tubulin loading control and reported as % of the average 0.1% DMSO vehicle intensity. Degradation data was plotted and analysed using Prism (Graphpad, version 8).
(§3) HeLa (5×10^5) and HEK293 (1×10^6) cells were seeded in standard 6-well plates (2 mL medium) overnight before treatment with compounds at the desired concentration (1 nM-10 μM), with a final DMSO concentration of 0.1% v/v. After 6 h treatment time, cells were washed with DPBS (Gibco) and lysed using 85 μL RIPA buffer (Sigma-Aldrich) supplemented with cOmplete Mini EDTA-free protease inhibitor cocktail (Roche) and benzonase. Lysates were clarified by centrifugation (20,000g, 10 min, 4° C.) and the total protein content of the supernatant was quantified using a Bradford colorimetric assay. Samples were prepared using equal amounts of total protein and LDS sample buffer (Invitrogen.
(§4) Representative blots in FIG. 3 show depletion of Brd2, Brd3 and Brd4 protein levels following treatment with increasing concentrations of representative compounds. Band intensities were normalized to the β-tubulin loading control and reported as % of the average 0.1% DMSO vehicle intensity, with each point representing mean±SEM of two independent experiments (n=2). Degradation data was plotted and analysed using Prism (Graphpad, version 8)

Brd3 [2] = molecular target: T2, Brd3 (Homo sapiens, UniProt Q15059); assay: as above; parameters: endogenous in cells; host or cells: HeLa; conditions: Brd3, 6 h treatment, 1 nM-10 μM; for Dmax: read-out: Dmax (%) maximum degradation observed
Procedure: as §1, §2, §3, §4

Brd2 [3] = molecular target: T1, Brd2; assay: Concentration-dependent BET degradation, immunoblot, HEK293 cells; parameters: endogenous in cells; host or cells: HEK293; conditions: HEK293, Brd2, 6 h treatment, 1 nM-10 μM; for Dmax: read-out: Dmax (%) maximum degradation observed
Procedure: as §1, §2, §3, §4

Brd3 [4] = molecular target: T2, Brd3; assay: as above; parameters: endogenous in cells; host or cells: HEK293; conditions: HEK293, Brd3, 6 h treatment, 1 nM-10 μM; for Dmax: read-out: Dmax (%) maximum degradation observed
Procedure: as §1, §2, §3, §4

Brd4 (L) [5] = molecular target: T3, Brd4 (L) (Homo sapiens, UniProt O60885); assay: as above; conditions: 6 h treatment, 1 nM-10 μM; for Dmax: read-out: Dmax (%) maximum degradation observed
T3 construct: endogenous in cells; host or cells: HEK293, HeLa
Procedure: as §1, §2, §3, §4

Brd4 (S) [6] = molecular target: T4, Brd4 (S) (Homo sapiens, UniProt O60885); assay: as above; conditions: 6 h treatment, 1 nM-10 μM; for Dmax: read-out: Dmax (%) maximum degradation observed
T4 construct: endogenous in cells; host or cells: HEK293, HeLa
Procedure: as §1, §2, §3, §4

MV4-11 cells = assay: Anti-proliferative effect, CellTiter-Glo assay; conditions: MV4-11, CellTiter-Glo, 72 h incubation, 5 μM and below
Procedure: The anti-proliferative effects of representative compounds were measured using the CellTiter-Glo assay (Promega). MV4-11 cells were incubated in a sterile, white, clear-bottomed 384-well cell-culture microplate (Greiner Bio-one), at 2× concentration in RPMI media and a volume of 25 μl. The next day, test compounds were serially diluted in RPMI media to 2× concentration, then added to cells to make a final volume of 50 μl. After a 72 h incubation 25 μl of CellTiter-Glo reagent was added to each well. Following 15 minute incubation the luminescence signal was read on a Pherastar FS. The final concentration of assay components are as follows: 3×10^5 cells/mL, 0.05% DMSO, 5 μM and below compound. Data (FIG. 11) was processed and dose-response curves generated using Prism 8 (Graphpad).

Brd4 (L) [7] = molecular target: T3, Brd4 (L); assay: Time-dependent BET degradation, immunoblot, HEK293 cells; parameters: dose or concentration left out as unconfirmed; conditions: timecourse 0-8 h
Procedure: as §1, §2
as §3, with “(3×10^5)” for “(5×10^5)”, “(0.5×10^6)” for “(1×10^6)”, “1 μM concentration,” for “the desired concentration (1 nM-10 μM),”, “incubation for the desired time (0-8 h),” for “6 h treatment time,”, “(20,000 g,” for “(20,000g,”, “(Invitrogen).” for “(Invitrogen.”
as §4, with “FIG. 4” for “FIG. 3”, “following 1 μM” for “following”, “treatment at various time points” for “treatment”, “with” for “with increasing concentrations of”, “version 8).” for “version 8)”
T½ (h) is the time required to deplete 50% of the protein relative to DMSO

Brd4 (L) [8] = molecular target: T3, Brd4 (L); assay: Concentration-dependent BET degradation, immunoblot, HeLa cells; conditions: 6 h treatment, 1 nM-10 μM; for Dmax: read-out: Dmax (%) maximum degradation observed
Procedure: as §1, §2, §3, §4

Brd4 (S) [9] = molecular target: T4, Brd4 (S); assay: as above; conditions: 6 h treatment, 1 nM-10 μM; for Dmax: read-out: Dmax (%) maximum degradation observed
Procedure: as §1, §2, §3, §4

T1 sequence (P25440 whole entry): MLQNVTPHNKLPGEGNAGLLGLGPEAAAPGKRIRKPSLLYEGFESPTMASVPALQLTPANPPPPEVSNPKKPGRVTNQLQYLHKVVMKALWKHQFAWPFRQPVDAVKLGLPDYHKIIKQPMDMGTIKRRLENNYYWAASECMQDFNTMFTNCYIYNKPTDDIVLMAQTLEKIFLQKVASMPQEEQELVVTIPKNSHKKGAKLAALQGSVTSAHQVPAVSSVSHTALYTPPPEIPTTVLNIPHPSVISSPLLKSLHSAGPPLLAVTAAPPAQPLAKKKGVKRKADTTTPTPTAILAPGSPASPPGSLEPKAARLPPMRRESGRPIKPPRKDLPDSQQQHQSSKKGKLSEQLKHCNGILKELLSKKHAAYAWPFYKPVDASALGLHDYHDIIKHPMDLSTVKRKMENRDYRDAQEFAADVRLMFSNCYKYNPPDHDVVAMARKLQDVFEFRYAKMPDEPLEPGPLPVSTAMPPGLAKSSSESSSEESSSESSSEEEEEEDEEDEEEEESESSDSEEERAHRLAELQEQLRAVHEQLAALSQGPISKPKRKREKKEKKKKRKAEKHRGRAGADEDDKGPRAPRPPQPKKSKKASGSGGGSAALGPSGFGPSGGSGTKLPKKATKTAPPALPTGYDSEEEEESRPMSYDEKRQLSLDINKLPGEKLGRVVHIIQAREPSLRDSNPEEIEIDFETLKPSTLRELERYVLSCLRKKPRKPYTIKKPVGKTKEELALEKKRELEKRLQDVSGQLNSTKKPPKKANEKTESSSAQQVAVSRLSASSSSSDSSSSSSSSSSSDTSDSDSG
T2 sequence (Q15059 whole entry): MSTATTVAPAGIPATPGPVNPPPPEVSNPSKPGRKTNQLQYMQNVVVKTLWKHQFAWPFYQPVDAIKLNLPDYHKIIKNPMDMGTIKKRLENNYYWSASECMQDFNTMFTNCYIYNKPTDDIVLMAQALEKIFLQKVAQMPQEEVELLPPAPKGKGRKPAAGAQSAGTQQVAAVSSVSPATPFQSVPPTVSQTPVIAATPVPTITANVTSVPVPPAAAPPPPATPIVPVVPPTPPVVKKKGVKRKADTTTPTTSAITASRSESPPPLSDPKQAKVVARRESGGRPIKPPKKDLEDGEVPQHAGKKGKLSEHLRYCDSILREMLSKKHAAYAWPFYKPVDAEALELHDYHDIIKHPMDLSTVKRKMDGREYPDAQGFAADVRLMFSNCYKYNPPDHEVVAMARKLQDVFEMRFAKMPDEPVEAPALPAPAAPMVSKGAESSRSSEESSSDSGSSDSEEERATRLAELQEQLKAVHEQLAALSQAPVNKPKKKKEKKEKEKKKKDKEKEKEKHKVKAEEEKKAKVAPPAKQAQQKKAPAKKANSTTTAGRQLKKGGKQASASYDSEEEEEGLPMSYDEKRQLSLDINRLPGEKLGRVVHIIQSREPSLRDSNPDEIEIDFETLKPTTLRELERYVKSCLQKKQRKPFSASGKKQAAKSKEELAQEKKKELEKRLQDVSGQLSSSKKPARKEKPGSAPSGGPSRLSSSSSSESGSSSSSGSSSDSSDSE

DC50 (Brd2 [1]) [nM]	Dmax (Brd2 [1]) [%]	DC50 (Brd3 [2]) [nM]	Dmax (Brd3 [2]) [%]	DC50 (Brd2 [3]) [nM]	Dmax (Brd2 [3]) [%]	DC50 (Brd3 [4]) [nM]	Dmax (Brd3 [4]) [%]	DC50 (Brd4 (L) [5]) [nM]	Dmax (Brd4 (L) [5]) [%]	DC50 (Brd4 (S) [6]) [nM]	Dmax (Brd4 (S) [6]) [%]	Dmax (Brd4 (L) [7]) [%]	DC50 (Brd4 (L) [8]) [nM]	Dmax (Brd4 (L) [8]) [%]	DC50 (Brd4 (S) [9]) [nM]	Dmax (Brd4 (S) [9]) [%]	Structure (SMILES)	cytotoxicity profile (anti-proliferative effect) (MV4-11 cells)
51 to 500	≥ 71	51 to 500	≥ 71	51 to 500	≥ 71	≤ 50	≥ 71	≤ 50	≥ 71	≤ 50	≥ 71	96	51 to 500	≥ 71	≤ 50	≥ 71	CCCC(NC(=O)/C(C#N)=C/c1cccc(Br)n1)c1ccc(OCC=NOCC(=O)NCCOCCOCCOCCOCCOCCNC(=O)c2ccc3c(c2)[C@H](Nc2ccc(Cl)cc2)C[C@H](C)N3C(C)=O)cc1 (stereo partly drawn) [Example 05IB3]	distinct from I-BET726 and inactive 05IB11
≤ 50	≥ 71	≤ 50	≥ 71	51 to 500	26 to 50	51 to 500	51 to 70	≤ 50	≥ 71	≤ 50	≥ 71	100	51 to 500	≥ 71	≤ 50	≥ 71	CCCC(NC(=O)/C(C#N)=C/c1cccc(Br)n1)c1ccc(OCCOCCOCCOCCOCCOCCOCCNC(=O)c2ccc(-c3ccc4c(c3)[C@H](Nc3ccc(Cl)cc3)C[C@H](C)N4C(C)=O)cc2)cc1 (stereo partly drawn) [Example 05IB6]	distinct from I-BET726 and inactive 05IB11
51 to 500	≥ 71	≤ 50	51 to 70	≤ 50	51 to 70	≤ 50	51 to 70	≤ 50	≥ 71	≤ 50	≥ 71	96	≤ 50	≥ 71	≤ 50	≥ 71	CCCC(NC(=O)/C(C#N)=C/c1nccs1)c1ccc(OCCOCCOCCOCCOCCOCCOCCNC(=O)c2ccc(-c3ccc4c(c3)[C@H](Nc3ccc(Cl)cc3)C[C@H](C)N4C(C)=O)cc2)cc1 (stereo partly drawn) [Example 05IB9]	distinct from I-BET726 and inactive 05IB11
